For one data set, the system named is HBV. In words: qPCR test in the HBV in vitro test (HBV DNA in HepG2.2.15 cells). In kind it is cell-based. The note with it: Hepatitis B virus, 192 h, HBV DNA in HepG2.2.15 culture medium, day 8, read-out: Half maximal inhibitory concentration (EC50) of HBV. How it is done:
To evaluate the inhibitory effect of the compound on HBV by detecting content of HBV DNA in HepG2.2.15 cells in a real-time qPCR test, with EC50 of the compound as an indicator.
3.1. HepG2.2.15 cells (4×10^4 cells/well) were inoculated into a 96-well plate and cultured at 37° C. in 5% CO2 overnight. 3.2. On day 2, the compound was 3-fold diluted in gradient for a total of 8 dilution gradients. The compound at different concentrations was added into the culture wells in duplicate. The final concentration of DMSO in the culture medium was 1%. 1 μM GLS4 was used as a 100% inhibition control (the structure of GLS4 disclosed in WO2008154817A1 is as follows:
1% DMSO was used as a 0% inhibition control. 3.3. On day 5, the culture medium was replaced with a fresh culture medium containing the compound. 3.4. On day 8, the culture medium in the culture wells was collected, and the high-throughput DNA purification kit (Qiagen-51162) was used to extract DNA. For specific steps, refer to the product manual.
3.6. Each well of the 96-well PCR plate was added with 15 μL of the reaction mixture, and then with 10 μL of sample DNA or HBV DNA standard. 3.7. The reaction conditions for PCR: heating at 95° C. for 10 min, degeneration at 95° C. for 15 s, and extension at 60° C. for 1 min, with a total of 40 cycles.
3.8.1. Calculation of the inhibition percentage: % Inh.=[1−(DNA copy number in the sample−DNA copy number in 1 μM GLS4)/(DNA copy number in the DMSO control−DNA copy number in 1 μM GLS4)]×100. 3.8.2. Calculation of EC50: half maximal inhibitory concentration (EC50) of the compound for HBV was calculated using GraphPad Prism software. 3.8.3.

Data set [1] in a line: Metabolic stability in liver microsomes. In kind it is in vitro ADME. The note with it: for half-life at 1 μM: 1 μM compound, 0.5 mg/mL; for microsomal CLint at 1 μM: read-out: CLint(mic). The protocol: Experimental objective: to evaluate the metabolic stability of test compounds 18 and 25 in liver microsomes of rats, beagle dogs and cynomolgus monkeys
Experimental procedures: first, the test compound (10 mM) was subjected to a two-step dilution, where the compound was diluted to an intermediate concentration of 100 μM with 100% methanol, and the working solution was diluted to 10 μM with a potassium phosphate buffer; eight 96-well incubation plates were prepared, and named T0, T5, T10, T20, T30, T60, Blank and NCF60, respectively; the reaction time points corresponding to the first 6 incubation plates were 0, 5, 10, 20, 30 and 60 min, respectively; for the Blank plate, neither the test compound nor a control compound was added, and for the NCF60 plate, potassium phosphate buffer was used in an incubation of 60 min in place of a NADPH regeneration system solution; 10 μL of the test compound working solution and 80 μL of the microsome working solution (liver microsome protein concentration was 0.625 mg/mL) were added to the T0, T5, T10, T20, T30, T60 and NCF60 plates, while only the microsome working solution was added to the Blank plate, and all the incubation plates were then placed in a 37° C. water bath for pre-incubation for about 10 min; after the pre-incubation, 10 μL of a NADPH regeneration system working solution was added into each sample well of all the plates except the NCF60 plate and T0 plate to start the reaction, and 10 μL of potassium phosphate buffer was added to each well of the NCF60 plate; therefore, in the test compound or control compound samples, the final reaction concentrations of the compound, testosterone, diclofenac and propafenone were 1 μM, the concentration of the liver microsomes was 0.5 mg/mL, and the final concentrations of DMSO and acetonitrile in the reaction system were 0.01% (v/v) and 0.99% (v/v), respectively; after incubation for an appropriate time (such as 5, 10, 20, 30, and 60 min), 300 μL of a stop solution (acetonitrile solution containing 100 ng/mL tolbutamide and 100 ng/mL labetalol) was added to each sample well to stop the reaction; 300 μL of the stop solution and then 10 μL of the NADPH working solution were added to the T0 plate, all the sample plates were shaken and centrifuged in a centrifuge (3220×g) for 20 min, and then 100 μL of supernatant was taken from each well and diluted with 300 μL of pure water for liquid chromatography-tandem mass spectrometry analysis.
On the technique in general: Microsomes from liver hold many membrane-bound enzymes, among them those of drug oxidation.

In the next data set the test system is hepatitis B virus. The experiment in a line: In vivo efficacy in the HDI/HBV mouse model. The note with it: HDI/HBV mice. An excerpt:
Experimental objective: to assay the efficacy of the compound against hepatitis B virus in mice through the HDI/HBV mouse model.
Preparation of compound: the solvent was an aqueous solution containing 10% polyethylene glycol-15 hydroxystearate; a certain amount of the test compounds 18 and 25 were separately dissolved in an aqueous solution containing 10% polyethylene glycol-15 hydroxystearate, and the mixtures were vortexed and sonicated to prepare uniform suspensions. The suspensions were stored at 4° C. for later use.
High pressure injection of the HBV plasmid DNA solution via the tail vein of mice: the day of plasmid injection was day 0, the day after injection was day 1, and so on. On day 0, all mice were injected with normal saline containing 10 μg of plasmid DNA via their tail veins at a dose of 8% of body weight, and the injection was completed within 5 s.
Administration: all mice were administered intragastrically twice a day (8/16 h interval) on day 1-6 and once on day 7. All mice were euthanized in the afternoon on day 7. The body weight of the mice, which was monitored every day, remained stable throughout the experiment.
Sample collection: blood was collected from the submandibular vein 4 h after the first administration in the morning on days 1, 3, and 5. All blood samples were collected in K2-EDTA anticoagulation tubes, and centrifuged for 10 min at 4° C., 7000 g to prepare about 40 μL of plasma. All mice were euthanized by CO2 four hours after administration in the morning on day 7. Blood was collected from the heart, and the plasma preparation method was the same as above. Two liver tissues were collected with 70-100 mg each, and quick-frozen by liquid nitrogen. After all samples were collected, they were stored in a −80° C. refrigerator for HBV DNA content detection.
Sample analysis: all plasma samples and liver samples were detected for HBV DNA by qPCR.

[2] abbreviates: Sprague-Dawley (SD), rat, SD rats liver microsomes.
[3] abbreviates: cynomolgus monkey, Cynomolgus monkeys liver microsomes.
The mark [4] stands for this setting: dog, Beagle dogs liver microsomes.
The mark [5] stands for this setting: 10 mg/kg intragastrically twice a day.
Setting [6] is: 30 mg/kg intragastrically twice a day.

SMILES strings stand for the structures. Where two headings read alike, the source gives them in different places. Where only a bound is given, the exact number is not on record here.

The term CLint scaled denotes the capacity of the preparation to metabolise the compound, expressed as a volume cleared per time. Lower therefore signals slow turnover. What is called half-life is how long it takes for the measured level to halve. A lower half-life goes with rapid decline. Turning to `C[C@]1(NC(=O)C(=O)c2c(Cl)c(C(=O)Nc3cc(F)c(F)c(F)c3)c3n2CCC3)CC[C@H](CC(=O)O)CC1` [Compound 25], in the data set with HBV, the EC50 stood at 4 nM. Moreover, in data set [1] (setting [2]), the CLint scaled at 1 μM is under 17.3 mL/min/kg, the half-life at 1 μM is over 2.42 h and the microsomal CLint at 1 μM is under 9.6 µL/min/mg. Also, in data set [1] (setting [3]), the intrinsic clearance (CLint scaled) at 1 μM was under 13 mL/min/kg, the half-life at 1 μM is over 2.42 h and the microsomal CLint at 1 μM was under 9.6 µL/min/mg. Moreover, in data set [1] (setting [4]), the CLint scaled at 1 μM was under 13.8 mL/min/kg, the half-life at 1 μM was over 2.42 h and the microsomal CLint at 1 μM was under 9.6 µL/min/mg. For the same molecule, in the data set with hepatitis B virus (setting [5]), the “HBV-DNA reduction Liver (day 7)” value is on record as 0.94 Δ Log10 copies/100 ng and the “HBV-DNA reduction Plasma (day 5)” value is 2.0 Δ Log10 copies/μL. Moreover, in the data set with hepatitis B virus (setting [6]), the “HBV-DNA reduction Liver (day 7)” value is listed as 2.36 Δ Log10 copies/100 ng and the “HBV-DNA reduction Plasma (day 5)” value was 3.57 Δ Log10 copies/μL.
Consider `C[C@]1(NC(=O)C(=O)c2c(Cl)c(C(=O)Nc3ccc(F)c(F)c3)c3n2CCC3)CC[C@H](CC(=O)O)CC1` [Compound 18], for which the EC50 in the data set with HBV turned out to be 11 nM. Besides, in data set [1] (setting [2]), the CLint scaled at 1 μM was under 17.3 mL/min/kg, the half-life at 1 μM was over 2.42 h and the microsomal CLint at 1 μM was under 9.6 µL/min/mg. Also, in data set [1] (setting [3]), the intrinsic metabolic clearance (CLint scaled) at 1 μM is under 13 mL/min/kg, the half-life at 1 μM is over 2.42 h and the microsomal CLint at 1 μM is under 9.6 µL/min/mg. Further, in data set [1] (setting [4]), the CLint scaled at 1 μM is under 13.8 mL/min/kg, the half-life at 1 μM is over 2.42 h and the microsomal CLint at 1 μM is under 9.6 µL/min/mg. In the data set on hepatitis B virus (setting [6]), the “HBV-DNA reduction Liver (day 7)” value is given as 1.99 Δ Log10 copies/100 ng and the “HBV-DNA reduction Plasma (day 5)” value is 2.84 Δ Log10 copies/μL.
